Results as given in patent US12195424B2, “Antibiotic compounds” (The General Hospital Corporation, priority 2017, dated 2025).

Assays:
[1] = tested on: Cutibacterium (Propionibacterium) acnes; assay: Morphology of treated P. acnes bacteria; type: cell-based; settings: in words (FIG. 13)
[2] = tested on: human hepatoma HepG2 cells; assay: Cytotoxicity (WST-1) in HepG2 cells; type: cell-based; settings: compared with CD437, in words
Source text: (§1) Human hepatoma, HepG2 (ATCC HB-8065) cells were maintained in DMEM containing 10% fetal bovine serum and antibiotics penicillin—streptomycin (100 units/ml). Normal human primary renal proximal tubular epithelial cells (RPTEC, Lonza catalog #CC-2553, Walkersville, MD, USA) and adult normal human epidermal keratinocytes (NHEK, Lonza catalog #192627) were maintained in renal cell growth media with growth supplements (REGM, Lonza catalog #CC-3190) and in keratinocyte growth media 2 with growth supplements (KGM-2, Lonza catalog #CC-3107), respectively in a humidified 5% CO2 incubator at 37° C.
(§2) For cytotoxicity tests, HepG2, RPTEC, and NHEK were cultured at 70-80% confluence in tissue culture treated 96-well plates in a volume of 100 μl/well corresponding culture media. To test cytotoxicity in the absence of serum, all cells were washed twice with PBS and then once with the serum-free corresponding culture media. The cells were then treated with a range of concentrations of retinoids in the serum-free culture media for 24 h. For the last 4 h of the 24 h period, 50 μl and 10 μl of WST-1 (Roche, Mannheim, Germany) were added in each well of the 24-well and the 96-well plates, respectively. WST-1 reduction was measured at 450 nm. The percent fluorescence relative to that of the no-treatment control was calculated. The assay was done in triplicate.

[3] = Cytotoxicity (WST-1) in HepG2 cells; type: cell-based, human; settings: human; HepG2 cells, serum-free media, 24 h; read-out: LC50
Source text: as §1, §2

Maximum tolerated dose = type: in vivo; settings: mice
Protocol: Maximum tolerated dose. Six-week-old female CD1 ICR outbred mice (20-25 g) were obtained from Charles River Laboratories (Wilmington, MA, USA). Analog 2 was dissolved in a 1:1 solution of Kolliphor EL (Sigma-Aldrich, St Louis, MO, USA) and ethanol and then diluted 1:10 in saline to a final concentration of 4 mg/ml. Groups of mice (n=6) were treated with 10, 20, 40, 80 mg/kg Analog 2 i.p. or vancomycin (25 mg/kg) every 12 h for 3 days. Control mice were injected with 400 μl of 10% Kolliphor EL/ethanol in saline i.p. every 12 h for 3 days. Mice were closely monitored until they were euthanized at 72 h from the first infection. After euthanizing mice, blood was collected by cardiac puncture. All samples were stored at 4° C. until for analysis. Serum was analyzed for alanine aminotransferase and urea nitrogen content with commercially available kits, following the manufacturer's protocol (Pointe Scientific, Canton, MI, USA). No statistical methods were used to predetermine samples size. The experiments were not randomized, and investigators were not blinded to allocation during experiments and outcome assessment. This study and all experimental protocols were approved by the Rhode Island Hospital Institutional Animal Care and Use Committee (RIH IACUC) and conducted in accordance with the Animal Welfare Act and National Institutes of Health guidelines for animal care and use. Statistical significance among each group was analyzed by one-way ANOVA with post-hoc Tukey test using PASW Statistics 18 (SPSS Inc. Chicago, IL, USA) and GraphPad Prism 7 (GraphPad Software, La Jolla, CA, USA).

MRSA MW2 persisters = assay: Persister killing assay; type: cell-based, S. aureus; settings: MRSA persisters, in words
Protocol: Persister killing assay. […] Persistency of stationary-phase S. aureus VRS1 was evaluated by treating with 100×MIC daptomycin and 100×MIC linezolid, because the strain is resistant to vancomycin, gentamicin, ciprofloxacin, and rifampicin. We prepared persister cells of the 13 S. aureus strains by growing cultures overnight to stationary phase at 37° C. at 225 rpm. The overnight cultures were washed three times with PBS and diluted to ˜5×10^7 ? CFU/ml with the same buffer. 2 ml of the persister suspension containing appropriate concentrations of antibiotics was added to the wells of a 96-well assay block (Corning Costar 3960) and incubated at 37° C., with shaking at 225 rpm. At specific times, 400 μl samples were removed and washed once with PBS to remove the antibiotic. The samples were serially diluted 10^5 fold with PBS and spot-plated onto TSA plates. After incubating the plates overnight (˜18 h) at 37° C., the colonies were counted to enumerate the number of cells. These experiments were conducted in triplicate.

human erythrocytes = assay: Human blood hemolysis; type: cell-based
Protocol: Human blood hemolysis. Hemolytic activity of retinoids on human erythrocytes was evaluated using a previously described method with modifications. 10% human erythrocytes were purchased from Rockland Immunochemicals (Limerick, PA, USA). The erythrocytes were diluted to 4% with PBS, and 100 μl was added to 100 μl of two-fold serial dilutions of compounds in PBS, 0.2% DMSO (negative control), or 2% Triton-X 100 (positive control) in a 96-well plate. The plate was incubated at 37° C. for 1 h and then centrifuged at 500×g for 5 min. 100 μl of the supernatant was transferred to a fresh 96-well plate and absorbance of supernatants was measured at 540 nm. Percent hemolysis was calculated using the following equation: (A540 nm of compound treated sample−A540 nm of 0.1% DMSO treated sample)/(A540 nm of 1% Triton X-100 treated sample−A540 nm of 0.1% DMSO treated sample)×100. HC50 (concentration of compound causing 50% hemolysis) was determined using SigmaPlot 10.0 (Systat Software Inc., San Jose, CA, USA).

[4] = every 12 h for 3 days, Analog 2 10-80 mg/kg i.p., vancomycin 25 mg/kg i.p., P>0.7

OCc1ccc2cc(-c3ccc(O)c(C45CC6CC(CC(C6)C4)C5)c3)ccc2c1 [Analog 2, 2-(adamantan-1-yl)-4-(6-(hydroxymethyl)naphthalen-2-yl)phenol]
morphology of bacteria [1]: altered and elongated
anticancer activity [2]: significantly reduced
CC50 at 24 h [3]: > 32 µg/mL
alanine aminotransferase (ALT) vs. control (Maximum tolerated dose; [4]): lack of significant differences
blood urea nitrogen (BUN) vs. control (Maximum tolerated dose; [4]): lack of significant differences
hepatic or renal toxicity (Maximum tolerated dose; up to 80 mg/kg i.p. (highest tested dose) every 12 h for 3 days): no detectable
anti-persister activity (MRSA MW2 persisters): retained bacterial activity against MRSA persisters
hemolytic activity (human erythrocytes; compared with CD437, in words): significantly reduced
HC50 (human erythrocytes; human erythrocytes, 1 h): > 32 µg/mL
